Assay [1] has as its target T1, rat M1 W101A receptor (Rattus norvegicus, UniProt P08482, W101A).
T1 construct: expressed in transfected cells
T1 sequence (P08482 1-460 W101A): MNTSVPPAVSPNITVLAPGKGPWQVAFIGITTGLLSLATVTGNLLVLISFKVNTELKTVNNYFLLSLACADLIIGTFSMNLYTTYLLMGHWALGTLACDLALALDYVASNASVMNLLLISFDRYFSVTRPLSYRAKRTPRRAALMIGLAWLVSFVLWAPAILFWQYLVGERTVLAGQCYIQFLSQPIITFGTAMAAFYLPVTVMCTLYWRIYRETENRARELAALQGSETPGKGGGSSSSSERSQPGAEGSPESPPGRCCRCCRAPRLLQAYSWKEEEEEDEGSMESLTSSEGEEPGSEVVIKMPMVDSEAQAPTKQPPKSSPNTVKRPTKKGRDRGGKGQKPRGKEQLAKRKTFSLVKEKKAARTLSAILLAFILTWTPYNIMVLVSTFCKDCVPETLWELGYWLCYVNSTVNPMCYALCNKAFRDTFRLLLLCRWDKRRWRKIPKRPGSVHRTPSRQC
Put plainly: ^3H-NMS radioligand binding, W101A. As to conditions: for Shift: Ki W101A divided by Ki wild-type; for increase in binding affinity relative to wild-type: radioligand binding, W101A. The protocol: Briefly, cell homogenates are prepared from cells transiently or stably expressing wild type or mutant receptors. For transiently transfected cells, HEK cells are transfected with receptor of interest and cells harvested 48 hours post transfection. Cells expressing the receptor, stably or transiently, are harvested using phosphate buffered saline containing 5 mM EDTA, cells centrifuged at low speed and pellet re-suspended in binding buffer. Cell suspension is polytroned and centrifuged at 15,000×g. The pellet is resuspended in binding buffer and centrifugation repeated two more times. The washed cell homogenates are used for the competition binding assays. Competition binding assays are carried out in the presence of fixed amount of cell homogenate, fixed concentration of radioactively labeled orthosteric or allosteric ligand and varying concentrations of the cal under study using appropriate buffer. Incubations are carried out at room temperature for 2 hours. Incubations are terminated by filtration onto GF/B filters using Packard cell harvester followed by 3 washes with ice-cold buffer. Radioactivity retained on the filters is quantitated using Packard Top Count using Microscint 20 scintillation fluid. […] The membranes prepared above are incubated with a labeled ligand in 25 mM sodium phosphate, 5 mM magnesium chloride, 0.01% BSA two hours at room temperature. The binding reaction is stopped by rapid filtration onto GF/B filters. […] The pKd values (pKd=−log Kd) of the labeled ligand are calculated.
Radioligand binding assays were carried out in 25 mM sodium phosphate, 5 mM magnesium chloride, 0.01% BSA. Incubations were for two hours at room temperature, and reactions were stopped by rapid filtration onto GF/B filters.

The target of another assay is T2, rat M1 Y106A receptor (Rattus norvegicus, UniProt P08482, Y106A).
T2 construct: expressed in transfected cells
T2 sequence (P08482 1-460 Y106A): T1 sequence (P08482 1-460 W101A) with A101W, Y106A
Put plainly: Phosphatidyl inositol hydrolysis assay, Y106A. Conditions: Table 6; for Shift: EC50 Y106A divided by EC50 wild-type; for EC50 / Eff (%): PI hydrolysis, Y106A; for Eff (%): relative to wild-type response to that ligand (clozapine: title says fold-response). It is filed as cell-based.

Assay [2] has as its target T1, rat M1 W101A receptor. Put plainly: Phosphatidyl inositol hydrolysis assay, W101A. It is filed as cell-based. Conditions: Table 6; for Shift: EC50 W101A divided by EC50 wild-type; for EC50 / Eff (%): PI hydrolysis, W101A; for Eff (%): relative to wild-type response to that ligand (clozapine: title says fold-response).
For the next assay, the target named is T3, rat M1 S109A receptor (Rattus norvegicus, UniProt P08482, S109A).
T3 construct: expressed in transfected cells
T3 sequence (P08482 1-460 S109A): T1 sequence (P08482 1-460 W101A) with A101W, S109A
The assay can be described thus: Phosphatidyl inositol hydrolysis assay, S109A. It is filed as cell-based. As to conditions: Table 6; for Shift: EC50 S109A divided by EC50 wild-type; for EC50 / Eff (%): PI hydrolysis, S109A; for Eff (%): relative to wild-type response to that ligand.

In assay [3] the target is T4, rat M1 wild-type receptors (Rattus norvegicus, UniProt P08482).
T4 construct: expressed in transfected cells
T4 sequence (P08482 1-460): T1 sequence (P08482 1-460 W101A) with A101W
Put plainly: Phosphatidyl inositol hydrolysis assay, wild-type. It is filed as cell-based. As to conditions: for Shift: EC50 divided by EC50 wild-type (reference).

[4] abbreviates: Table 5, PI hydrolysis, maximum response relative to carbachol.
[5] abbreviates: Table 6, PI hydrolysis, M1 WT, maximum response, normalized.

SMILES strings stand for the structures. Residue numbers refer to the chain shown, from its start.

What is called IC50 is the concentration at which inhibition is half-maximal. In the case of `CCCCC1CCN(CCCC(=O)c2ccccc2C)CC1` [AC-42, 4-n-butyl-1-[4-(2-methylphenyl)-4-oxo-1-butyl] piperidine hydrogen chloride], on rat M1 W101A receptor [1], the IC50 was 50.1 nM, the Shift came to 0.01 and the “increase in binding affinity relative to wild-type” value came to 50 fold.
In general, EC50 refers to the concentration needed to bring the measured effect to its halfway point. Broadly, the pEC50 is the EC50 on a negative log10 scale, so that one unit is a factor of ten. A high value points to a low EC50. On to `CCCCC1CCN(CCCN2C(=O)COc3cc(F)ccc32)CC1` [AC-260584, 4-[3-(4-Butyl-piperidin-1-yl)-propyl]-7-fluoro-4H-benzo [1,4]oxazin-3-one], for which the Shift is 4 at rat M1 Y106A receptor; 0.03 on rat M1 W101A receptor [2]; 0.003 at rat M1 W101A receptor [1]; 1 on rat M1 S109A receptor; 1 in assay [3] (Table 6). The concentration giving a half-maximal response (EC50) is 251 nM at rat M1 Y106A receptor; 1.58 nM at rat M1 W101A receptor [2]; 79.4 nM at rat M1 S109A receptor; 50.1 nM in assay [3] (Table 5, PI hydrolysis, wild-type). Besides, the “Eff (%)” value on rat M1 Y106A receptor is 110 ± 22%; at rat M1 W101A receptor [2], 112 ± 6%; on rat M1 S109A receptor, 85 ± 11%; in assay [3] (setting [4]), 99 ± 20%; in assay [3] (setting [5]), 100 ± 7%. For the same molecule, the IC50 on rat M1 W101A receptor [1] is 3.16 nM. The “increase in binding affinity relative to wild-type” value on rat M1 W101A receptor [1] is reported as “over 100 fold”. For the same molecule, the negative logarithm of the EC50 (pEC50) in assay [3] (Table 6, PI hydrolysis, M1 WT) was found to be 7.3 ± 0.1.
In the case of `Clc1ccc2c(c1)N=C(N1CCNCC1)c1ccccc1N2` [NDMC, 8-chloro-11-(1-piperazinyl)-5H-dibenzo [b,e] [1,4] diazepine], the Shift is on record as 3 at rat M1 Y106A receptor; 6 on rat M1 W101A receptor [2]; 1 on rat M1 W101A receptor [1]; 4 on rat M1 S109A receptor; 1 in assay [3] (Table 6). Besides, the EC50 is 200 nM on rat M1 Y106A receptor; 316 nM at rat M1 W101A receptor [2]; 200 nM at rat M1 S109A receptor; 100 nM in assay [3] (Table 6, PI hydrolysis, M1 WT). Besides, the “Eff (%)” value worked out at 40 ± 4% at rat M1 Y106A receptor; 54 ± 11% on rat M1 W101A receptor [2]; 47 ± 17% on rat M1 S109A receptor; 44 ± 17% in assay [3] (setting [4]); 55 ± 8% in assay [3] (setting [5]). Also, the IC50 on rat M1 W101A receptor [1] is 126 nM.

These data come from US20090209525A1, “ENABLING METHODS TO IDENTIFY ALLOSTERIC MODULATORS OF RECEPTOR ACTIVITY” (priority 2006, published 2009).
